The values below come from BindingDB's records for doi:10.1097/00001756-199710200-00002 (Cnrs Upr 9023, 1997).

“And” between values parts separate entries of the source, which are not always exact repeats. Equal entries are not always repeated.

In assay [1] the target is 5-hydroxytryptamine receptor 4 (Rattus norvegicus, UniProt Q62758).
The target in assay [2] is 5-hydroxytryptamine receptor 4 (Homo sapiens, UniProt Q13639).
Sequence of 5-hydroxytryptamine receptor 4 (Homo sapiens, UniProt Q13639) (Q13639 whole entry): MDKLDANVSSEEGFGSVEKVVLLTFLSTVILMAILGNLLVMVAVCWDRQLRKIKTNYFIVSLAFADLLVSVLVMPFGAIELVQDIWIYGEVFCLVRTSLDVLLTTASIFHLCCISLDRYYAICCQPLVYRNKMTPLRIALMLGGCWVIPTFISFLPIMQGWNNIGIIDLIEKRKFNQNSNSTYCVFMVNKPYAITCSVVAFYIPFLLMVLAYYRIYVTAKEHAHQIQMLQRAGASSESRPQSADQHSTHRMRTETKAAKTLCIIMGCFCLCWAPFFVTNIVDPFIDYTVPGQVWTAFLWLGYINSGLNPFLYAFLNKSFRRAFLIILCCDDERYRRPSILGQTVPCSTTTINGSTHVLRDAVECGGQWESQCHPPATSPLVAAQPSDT

Sequence of 5-hydroxytryptamine receptor 4 (Rattus norvegicus, UniProt Q62758) (Q62758 whole entry): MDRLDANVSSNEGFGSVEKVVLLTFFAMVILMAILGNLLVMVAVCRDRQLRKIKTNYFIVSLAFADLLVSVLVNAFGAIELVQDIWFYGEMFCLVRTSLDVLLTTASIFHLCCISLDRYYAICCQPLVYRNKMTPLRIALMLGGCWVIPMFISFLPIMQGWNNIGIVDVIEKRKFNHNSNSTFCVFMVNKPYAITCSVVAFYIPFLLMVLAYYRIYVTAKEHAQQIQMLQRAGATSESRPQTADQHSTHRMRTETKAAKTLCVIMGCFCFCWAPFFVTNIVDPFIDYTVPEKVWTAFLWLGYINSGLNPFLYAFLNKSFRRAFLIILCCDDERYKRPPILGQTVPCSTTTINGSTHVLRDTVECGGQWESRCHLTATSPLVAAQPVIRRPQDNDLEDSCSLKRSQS

Consider `CC(C)n1c(=O)n(C(=O)NC2CC3CCC(C2)N3C)c2ccccc21` (centres undefined) [BIMU 8], for which the Ki – broadly, the dissociation constant of the complex between target and ligand, obtained from inhibition or displacement – in assay [1] turned out to be 19.1 nM; in assay [2], 45.7 nM.

`COc1ccc2[nH]c(=O)n(C(=O)OC3CC4CCC(C3)N4C)c2c1` (centres undefined) [DAU 6285]: the Ki in assay [1] was 22.4 nM and 5.37 nM; in assay [2], 18.6 nM and 10.5 nM.

Take `Cn1cc(C(=O)OCC2CCN(CCNS(C)(=O)=O)CC2)c2ccccc21` [GR 113808]: the Ki in assay [1] was 0.02 nM and 0.03 nM; in assay [2] it was 0.02 nM and 0.09 nM.

In the case of `COc1[nH]c2ccc(F)cc2c1C(=O)OCC1CCN(CCNS(C)(=O)=O)CC1` [GR-125487], the Ki is 0.0089 nM in assay [1] and 0.02 nM in assay [2].

In assay [1], `COc1cc(N)c(Cl)cc1C(=O)NC1CCN2CCCC1C2` (centres undefined) [NSC_3035240] displayed a Ki of 112 nM.

As to `COc1cc(N)c(Cl)cc1C(=O)NC1CN2CCC1CC2` (centres undefined) [ZACOPRIDE,R], the inhibitory constant (Ki) worked out at 186 nM in assay [1] and 282 nM in assay [2].

With `NCCc1c[nH]c2ccc(C(N)=O)cc12` [[3H]-5-carboxamidotryptamine], the Ki in assay [1] was determined as 9120 nM.

On to `COc1ccc2[nH]cc(CCN)c2c1` [tryptamine, 5-Methoxy], for which the Ki amounted to 123 nM in assay [1] and 155 nM in assay [2].
